In patent publication EP1066315B1 (University of Dundee, priority 1998, dated 2008):
“Also recorded” adds a separate entry of the source. Residues, ends and D or L forms follow the SMILES beside them. *: point of attachment. Fmoc = O=C(OCC1c2ccccc2-c2ccccc21)*

Legend:
[1] = system: Human B-cell AEP; assay: Digestion of TTCF by human B-cell AEP in the presence of tetrapeptides; type: biochemical; conditions: Fig 3d
[2] = system: EBV-transformed B cells / autologous TTCF-specific T cell clones; assay: TTCF antigen presentation by EBV-transformed B cells, read out as proliferation of autologous T cell clones; type: cell-based, human
Protocol: The invention will now be described by reference to the following Examples and Figures wherein • Figure 1: Processing of TTCF by a leupeptin-insensitive cysteine endopeptidase activity. (a) TTCF was digested in vitro in the presence of disrupted lysosomes (1-2 µg) in the presence or absence of iodoacetamide (1 mM), leupeptin, E64 or pepstatin (each at 0.1 mg/ml). Digestions were in 0.1 M NH4 acetate at pH 4.5 or Na2HPO4, pH 6.0 or 7.0. After 4 hours at 37°C, the reactions were separated by Tris-tricine SDS-PAGE and stained with Coomassie Blue. (b) Cleavage sites: TTCF digestion products were separated by SDS PAGE and electrophoretically transferred to nitrocellulose membrane. Individual fragments numbered 1-6 were subjected to 5 cycles of Edman degradation. N-terminal sequence obtained is shown in bold following upstream residues from TTCF (tetanus toxin numbering). The N-terminal sequence of His-tagged TTCF was obtained for fragments 1 and 3. (c) Residues Asn 1184 and Glu 1184 in TTCF were mutated to alanine (see Methods) and digestions performed as before. The mutation abolishes cleavage at the mutated site but not at the first site (doublet at 47 kD). In this experiment cleavage of the third site was minimal. • Figure 2: TTCF is processed by an asparaginyl endopeptidase. (a) Chromatography of the TTCF processing activity on Mono-S resin. Fractions eluted by NaCl gradient were incubated with the substrates Z-Ala-Ala-Asn-NHMec or Z-Phe-Arg-NHMec in the presence or absence of E64 (trans-epoxysuccinyl-L-leucylamido-(4-guanidino)butane). […] (c) Each fraction was analysed by SDS-PAGE and Western blotting. […] Release of 7-amino-4-methyl coumarin was measured after 10, 20 or 30 minutes. […] At different times the cells were washed, fixed in 0.05 % glutaraldehyde and antigen presentation measured using proliferation of different autologous TTCF-specific T cell clones. c, AEP pre-processing of TTCF speeds antigen presentation. […] Presentation was measured after 60 minutes of antigen pulsing using EBV B cells. […]

C[C@H](NC(=O)OCC1c2ccccc2-c2ccccc21)C(=O)N[C@@H](CCC(=O)O)C(=O)N[C@@H](CC(N)=O)C(=O)N[C@@H](CCCCN)C(N)=O [AENK, Ala-Glu-Asn-Lys-NH] (Fmoc-AENK-NH2)
inhibition of TTCF digestion by human B-cell AEP [1]: inhibited
presentation of AEP-pre-processed antigen ([2]; EBV B cells, TTCF pre-processed with AEP, 60 minutes of antigen pulsing, Fig 9d): no longer inhibited; also recorded: did not block
antigen presentation by EBV-B cells ([2]; EBV-B cells from donor, 2 mg/ml peptide, Fig 9b): blocked antigen presentation by EBV-B cells very effectively
